Test system: leukopenia caused by 5-FU
Assay: hemopoietic effect in animal experimentation: leukopenia caused by 5-FU in rats, blood cell counts
Assay type: in vivo
[1] = male rats, 5-FU 100 mg/kg orally twice on 8th day, blood after 14 days, mean ± SEM
[2] = rats, 5-FU model, values of Table 1
[3] = rats, p<0.01 vs control (5-FU), p<0.05 vs trial 1

Structure (SMILES): O=c1[nH]cc(F)c(=O)[nH]1 [Trial 5-FU, 5-fluorouracil]
- GrC. (granulocyte) [1]: 0.66 ± 0.11 × 10^3/μl
- LymC. (lymphocyte) [1]: 2.21 ± 0.15 × 10^3/μl
- MonoC. (monocyte) [1]: 0.84 ± 0.12 × 10^3/μl
- Platelet [1]: 983.5 ± 52.0 × 10^3/μl
- RBC (red blood cell) [1]: 9.58 ± 0.14 × 10^6/μl
- WBC (white blood cell) [1]: 3.70 ± 0.23 × 10^3/μl
- granulocyte (mean) [2]: 0.66 ± 0.11 10^3/µL
- lymphocyte (mean) [2]: 2.21 ± 0.15 10^3/µL
- monocyte (mean) [2]: 0.84 ± 0.12 10^3/µL
- white blood cells (mean) [2]: 3.7 ± 0.23 10^3/µL
- effect on granulocytes (in words) (rats, p<0.01 vs control (5-FU) or vs trial 1): inhibited
- effect on lymphocytes (in words) [3]: inhibited
- effect on monocytes (in words) [3]: inhibited
- effect on white blood cells (in words) (rats, unpaired student t test, p<0.01 vs control (5-FU) or vs trial 1): inhibited

From patent publication US6372261B1, “Process for producing Guilu ErXiangao” (Pharmaceutical Industry Technology and Development Center, priority 2000, dated 2002)
